# Measured values as given in US5637619A, “Antitumor 2-aminocarbonyl-1, 2-bis(methylsulfonyl)-1-(substituted)hydrazines” (Yale University, priority 1995, dated 1997).
# Legend:
# [1] = Body weight change / toxicity in L1210-bearing mice; format: in vivo, mice (CD2F1); details: L1210-bearing mice
# Experimental: (§1) Leukemia L1210 cells were obtained from the Frederick Cancer Research Facility, Division of Cancer Treatment Tumor Repository of the National Cancer Institute, and were maintained by serial passage in tissue culture. Every 8 weeks, tumor cells were injected intraperitoneally into five donor CD2 F1 mice 8- to 10- weeks of age and were allowed to grow for 7 days. The peritoneal fluid was withdrawn and the suspension was centrifuged for 5 min at 1600 g. The supernatant was decanted and 10^5 cells/mL were seeded into 10 mL of RPMI 1640 medium supplemented with 10% fetal bovine serum and 1% L-glutamine, and once again maintained in culture. To assay for antineoplastic activity, 0.1 mL of the cell suspension containing 10^5 L1210 leukemia cells was injected ip into each recipient mouse. Test compounds were administered over a wide range of dosage levels, beginning 24 h after tumor implantation, and continued once daily for 6 consecutive days. All drugs were administered ip as a solution in 100% dimethylsulfoxide (DMSO), in a volume not exceeding 0.025 mL. […] Mice were weighed during the course of the experiments, and the percentage change in body weight from onset to termination of therapy was used as an indication of drug toxicity. Determination of the sensitivity of neoplasms to these agents was based upon the prolongation of survival time afforded by the drug treatments.
# (§2) ^a Administered ip once daily for six consecutive days, beginning 24 hours after tumor implantation, with 5-10 mice being used per group. ^b Average percent change in body weight from onset to termination of therapy. ^c % T/C=average survival time of treated/control mice×100; cures (>60-day survivors) are listed separately and are not included in this calculation.
# L1210 leukemia = L1210 leukemia survival time in mice (ip implanted); format: in vivo, mice (CD2F1); details: for %T/C (average survival time treated/control × 100): cures not included
# Experimental: as §1, §2
# M109 lung carcinoma = test: M109 lung carcinoma, sc implanted; format: in vivo, BALB/c mice
# Experimental: (§3) The M5076 reticulum cell sarcoma was passaged biweekly by sc transfer of tumor fragments into C57BL/6 mice, and the M109 lung carcinoma was similarly passaged in BALB/c mice. The LX-1 human lung carcinoma was passaged sc every two to three weeks in BALB/c-background athymic (nu/nu) mice. For use in these systems, compound III was dissolved in: (a) 100% DMSO and administered by iv injection in a fixed volume of 10 microliters; or (b) DMSO diluted with saline to a final concentration of 10% DMSO and administered iv in a volume of 0.01 milliliter/g of body weight. […] Mitomycin C and cyclophosphamide were dissolved and administered in saline. BCNU and MeCCNU were dissolved in ethanol and diluted 1:9 (v/v) with water prior to administration.
# (§4) Five mice per group were employed in experiments with the B16F10 melanoma, and 8 mice per group with the M5076 sarcoma, the M109 carcinoma and the LX-1 carcinoma. A minimum of two dose levels per compound were included in each evaluation and drug therapy was initiated 24 h after tumor implantation for the M5076 sarcoma and M109 carcinoma. In the LX-1 experiment, tumor bearing mice were selected and sorted into treatment and control groups on day 6 post-tumor implant such that all tumor weights ranged from 50-100 mg and median tumor weights per group were reasonably similar. Therapeutic results are presented in terms of: (a) increases in lifespan reflected by the relative median survival time (MST) of treated versus control groups (i.e., %T/C values), and by long-term survivors, and (b) primary tumor growth inhibition (i.e., T-C values) determined by calculating the relative median times for treated (T) and control untreated (C) mice to grow tumors of a 0.5 g size for the LX-1 carcinoma or a 1 g size for the murine neoplasms. Tumor weights were interchangeable with tumor size on the basis of 1 mm^3 =1 mg. […] The activity criterion for tumor inhibition was a delay in tumor growth consistent with one log10 cell kill (LCK). The absolute T-C value needed to attain this level of efficacy varied from experiment to experiment and depended upon the tumor volume doubling time of the control mice in each study. Treated mice dying prior to day 10 in the ip M109 experiment, or dying before their tumors achieved 0.5 g for the LX-1 carcinoma or 1 g in size for all other sc tumor models, were considered to have died from drug toxicity. Groups of mice with more than one death due to drug toxicity were not used in the evaluation of antitumor efficacy. Statistical evaluations of data were performed using Gehan's generalized Wilcoxan test (Gehan, Biometrika, 1965, 52, 203-233).
# Compound III was also evaluated against the M109 lung carcinoma implanted subcutaneously (sc). In the initial test using this model, a dose of 50 mg/kg per injection of this compound was administered intravenously (iv) in 10% DMSO in saline every fourth day for a total of three injections. […] Mitomycin C, used as a reference drug, produced a maximum %T/C of 103 and a delay in tumor growth of 10 days (data not shown). A subsequent evaluation of compound III was performed using four different doses on a slightly different schedule, i.e., 24, 32, 48 and 64 mg/kg administered every third day for four total injections, and two vehicles, 10% DMSO in saline and 100% DMSO. […] Cyclophosphamide and mitomycin C were included as reference drugs in the last experiment. The former compound produced a maximum %T/C of 143 and a delay in tumor growth of 8.8 days, while mitomycin C produced a maximum %T/C of 134 and a T-C value of 9.3 days (data not shown). As reported earlier, compound X achieved a maximum %T/C of 136 and a maximum T-C value of 14.5 days against this tumor (Shyam, et al., J. Med. Chem., 1993, 36, 3496).
# [2] = tested on: M5076 reticulum cell sarcoma; test: M5076 reticulum cell sarcoma, sc implanted; format: in vivo, C57BL/6 mice; details: 16 mg/kg per injection, iv every fourth day × 3
# Experimental: as §3, §4
# Compound III was also evaluated against the M5076 reticulum cell sarcoma implanted sc. When administered iv at a level of 48 mg/kg per injection in 100% DMSO every other day for five days, compound III cured 6 out of 8 mice and consequently, no median time (T-C value) to reach 1 gram size tumors was expressed for this group. Tumor growth in mice receiving only 100% DMSO was indistinguishable from that of untreated control animals. 1-(2-Chloroethyl)-3-(4-methylcyclohexyl)-1-nitrosourea (MeCCNU) and BCNU were included in this experiment for comparison. The former achieved a maximum %T/C of 128 and a delay in tumor growth of 33.5 days at 16 mg/kg per injection administered iv every fourth day for three total injections, while BCNU, administered iv on the same treatment schedule, produced a %T/C in excess of 157, with 2 out of 8 cures, and a T-C of >62 days (data not shown).
# [3] = reference drugs in last experiment (experiment b)
# [4] = reference drug in initial test (experiment a)
SMILES,Av. Wt. Change % ([1]; 5 mg/kg ip once daily × 6),Av. Wt. Change % ([1]; 10 mg/kg ip once daily × 6),Av. Wt. Change % ([1]; 15 mg/kg ip once daily × 6),Av. Wt. Change % ([1]; 20 mg/kg ip once daily × 6),Av. Wt. Change % ([1]; 25 mg/kg ip once daily × 6),Av. Wt. Change % ([1]; 50 mg/kg ip once daily × 6),Av. Wt. Change % ([1]; 100 mg/kg ip once daily × 6),%T/C (average survival time treated/control × 100) (L1210 leukemia; 5 mg/kg ip once daily × 6),%T/C (average survival time treated/control × 100) (L1210 leukemia; 10 mg/kg ip once daily × 6),%T/C (average survival time treated/control × 100) (L1210 leukemia; 15 mg/kg ip once daily × 6),%T/C (average survival time treated/control × 100) (L1210 leukemia; 20 mg/kg ip once daily × 6),% 60 Day Survivors (cures) (L1210 leukemia; 50 mg/kg ip once daily × 6),% 60 Day Survivors (cures) (L1210 leukemia; 10 mg/kg ip once daily × 6),further results
"CCOC(=O)C(Cc1ccccc1)NC(=O)N(N(CCCl)S(C)(=O)=O)S(C)(=O)=O (stereo not shown) [Compound IX, 1,2-Bis(methylsulfonyl)-1-(2-chloroethyl)-2-(1-ethoxycarbonyl-2-phenylethyl)aminocarbonylhydrazine]",-2.5%,-0.5%,-1.9%,-1.9%,-0.9%,-2.0%,-2.0%,147%,165%,160%,174%,60%,,Av. Wt. Change % ([1]; 150 mg/kg ip once daily × 6): -5.0%; %T/C (average survival time treated/control × 100) (L1210 leukemia; 25 mg/kg ip once daily × 6): 177%; %T/C (average survival time treated/control × 100) (L1210 leukemia; 50 mg/kg ip once daily × 6): 225%; % 60 Day Survivors (cures) (L1210 leukemia; 100 mg/kg ip once daily × 6): 100%; % 60 Day Survivors (cures) (L1210 leukemia; 150 mg/kg ip once daily × 6): 20%; %T/C (average survival time treated/control × 100) (L1210 leukemia; 150 mg/kg ip once daily × 6): 169%
"C=CCNC(=O)N(N(CCCl)S(C)(=O)=O)S(C)(=O)=O [Compound V, 2-Allylaminocarbonyl-1,2-bis(methylsulfonyl)-1-(2-chloroethyl)hydrazine]",-1.6%,-2.1%,-2.9%,,,,,184%,394%,,,,40%,"% 60 Day Survivors (cures) (L1210 leukemia; 5 mg/kg ip once daily × 6): 20%; % 60 Day Survivors (cures) (L1210 leukemia; 15 mg/kg ip once daily × 6): 100%; antileukemic activity / therapeutic potential (in words) (L1210 leukemia; qualitative, L1210 leukemia in mice): highly efficacious against this tumor"
"CS(=O)(=O)N(CCCl)N(C(=O)NCCCCl)S(C)(=O)=O [Compound VI, 1,2-Bis(methylsulfonyl)-1-(2-chloroethyl)-2-(3-chloropropyl)aminocarbonylhydrazine]",-2.8%,-5.6%,-8.8%,,,,,111%,187%,192%,,,,% 60 Day Survivors (cures) (L1210 leukemia; 15 mg/kg ip once daily × 6): 20%; cure rate (in words) (L1210 leukemia; highest dosage level examined (15 mg/kg × 6)): partial cure rate of tumor-bearing mice
"CCOC(=O)CNC(=O)N(N(CCCl)S(C)(=O)=O)S(C)(=O)=O [Compound VII, 1,2-Bis(methylsulfonyl)-1-(2-chloroethyl)-2-(ethoxycarbonylmethyl)aminocarbonylhydrazine]",-1.5%,-1.4%,-0.5%,-3.7%,-0.5%,-2.5%,-4.0%,151%,202%,202%,191%,80%,20%,Av. Wt. Change % ([1]; 75 mg/kg ip once daily × 6): -1.5%; % 60 Day Survivors (cures) (L1210 leukemia; 20 mg/kg ip once daily × 6): 20%; % 60 Day Survivors (cures) (L1210 leukemia; 25 mg/kg ip once daily × 6): 100%; %T/C (average survival time treated/control × 100) (L1210 leukemia; 50 mg/kg ip once daily × 6): 138%; % 60 Day Survivors (cures) (L1210 leukemia; 75 mg/kg ip once daily × 6): 60%; %T/C (average survival time treated/control × 100) (L1210 leukemia; 75 mg/kg ip once daily × 6): 119%; %T/C (average survival time treated/control × 100) (L1210 leukemia; 100 mg/kg ip once daily × 6): 115%
"CCOC(=O)C(C)NC(=O)N(N(CCCl)S(C)(=O)=O)S(C)(=O)=O (stereo not shown) [Compound VIII, 1,2-Bis(methylsulfonyl)-1-(2-chloroethyl)-2-(1-ethoxycarbonylethyl)aminocarbonylhydrazine]",-2.0%,-1.4%,-0.5%,-1.5%,-2.5%,-3.3%,-2.5%,170%,178%,185%,227%,100%,20%,Av. Wt. Change % ([1]; 75 mg/kg ip once daily × 6): -2.5%; % 60 Day Survivors (cures) (L1210 leukemia; 25 mg/kg ip once daily × 6): 60%; %T/C (average survival time treated/control × 100) (L1210 leukemia; 25 mg/kg ip once daily × 6): 239%; % 60 Day Survivors (cures) (L1210 leukemia; 75 mg/kg ip once daily × 6): 80%; %T/C (average survival time treated/control × 100) (L1210 leukemia; 75 mg/kg ip once daily × 6): 125%; %T/C (average survival time treated/control × 100) (L1210 leukemia; 100 mg/kg ip once daily × 6): 118%
"O=P1(N(CCCl)CCCl)NCCCO1 (stereo not shown) [Cyclophosphamide, cyclophosphamide, reference compound]",,,,,,,,,,,,,,delay in tumor growth (T-C) (M109 lung carcinoma; [3]): 8.8 days; maximum %T/C (M109 lung carcinoma; [3]): 143%
"CC1CCC(NC(=O)N(CCCl)N=O)CC1 (stereo not shown) [MeCCNU, 1-(2-Chloroethyl)-3-(4-methylcyclohexyl)-1-nitrosourea]",,,,,,,,,,,,,,delay in tumor growth (T-C) [2]: 33.5 days; maximum %T/C [2]: 128%
"CO[C@@]12[C@H](COC(N)=O)C3=C(C(=O)C(C)=C(N)C3=O)N1C[C@@H]1N[C@@H]12 [Mitomycin C, mitomycin C, reference compound]",,,,,,,,,,,,,,delay in tumor growth (T-C) (M109 lung carcinoma; [4]): 10 days; maximum %T/C (M109 lung carcinoma; [4]): 103%; delay in tumor growth (T-C) (M109 lung carcinoma; [3]): 9.3 days; maximum %T/C (M109 lung carcinoma; [3]): 134%
